We go through 40 compounds from PubChem BioAssay AID2842 (Southern Research Institute, 2010).

In brackets after ≈: the same amount, converted by molar mass. Some results are limits rather than exact numbers.

The term IC90 denotes the point of the concentration-response curve where the effect stands at 90%.

The experiment concerns M. tuberculosis H37Rv growth inhibition. Nature of the experiment: Mycobacterium tuberculosis H37Rv growth inhibition, putative kinase inhibitor library, confirmatory dose response (AID 2842).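 Also: bacteria incubated one week before Alamar blue readout.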

Consider `Cc1ccc(C)c(-c2nnc(NC(=O)C(C)C)o2)c1`, for which the IC90 is 6.62 µg/mL (≈ 25.5 µM). As to `COc1cccc(C(=O)Nc2nnc(-c3ccc(Cl)cc3)o2)c1`, the IC90 was under 0.2 µg/mL. Regarding `CC(C)Cn1c(N2CCN(Cc3ccc(Cl)c(Cl)c3)CC2)nc2c1c(=O)[nH]c(=O)n2C`, the concentration for an effect of 90% (IC90) was 1.43 µg/mL (≈ 3.07 µM).

As for `COc1cccc(C(=O)Nc2nnc(-c3ccc(C)cc3C)o2)c1`, the 90% effect concentration (IC90) is 20.8 µg/mL (≈ 64.2 µM). Next, `O=C(Nc1nnc(-c2ccc(Cl)cc2)o1)c1ccccc1F`: 0.72 µg/mL (≈ 2.27 µM); `CCOC(=O)c1ccc2nc(NC(=O)C(C)C)sc2c1`: 19.5 µg/mL (≈ 66.5 µM). Then `O=C(COc1ccc2ccccc2c1)Nc1nnc2n1CCS2`, with 23.6 µg/mL (≈ 72.2 µM). For `Cc1ccc(Nc2nc(N3CCN(c4ccc(F)cc4)CC3)nc3nccnc23)cc1C`, the 90% effect concentration (IC90) is 22.8 µg/mL (≈ 53 µM). Next, `O=C(c1ccc(Nc2nc(-c3ccccc3)c3cc(Br)ccc3n2)cc1)N1CCCC1`: 21.1 µg/mL (≈ 44.6 µM).

For the compound `COc1ccccc1N1CCN(c2nc(Nc3ccc(C)c(C)c3)c3nccnc3n2)CC1`, the 90% effect concentration (IC90) was 1.68 µg/mL (≈ 3.8 µM). Then `N#Cc1ccccc1NC(=O)C(=O)NCCSc1ncc(-c2ccccc2)[nH]1`, with 4.48 µg/mL (≈ 11.4 µM); and `c1ccc(CSc2ncnc3nc[nH]c23)cc1`, with 19.5 µg/mL (≈ 80.3 µM); and `COc1ccc(-c2nsc(SCC(=O)NCc3ccco3)n2)cc1`, with under 0.2 µg/mL. Then `O=C(Nc1nnc(-c2cc(Cl)ccc2Cl)o1)C1CC1`, with 7.42 µg/mL (≈ 24.9 µM); and `COc1ccc(-c2nnc(Nc3nc4c(OC)cccc4s3)o2)cc1`, with 23.6 µg/mL (≈ 66.5 µM). Then `O=C1CN(C(=O)c2cc(Cl)ccc2Cl)C(c2ccccc2)c2cc(Cl)ccc2N1` (stereo not given), with 6.59 µg/mL (≈ 14.8 µM).

Take `Cc1nc2c(ccc3nc(NC(=O)Cc4ccccc4)sc32)s1`: the IC90 is 2.92 µg/mL (≈ 8.6 µM). Then `O=C(COc1ccc2c3c(c(=O)oc2c1)CCCC3)OC1CCCCC1`, with 9.71 µg/mL (≈ 27.2 µM); and `COc1ccc(OC)c(NC(=O)c2cc3cc(Cl)ccc3oc2=O)c1`, with 0.77 µg/mL (≈ 2.14 µM). Next, `Cc1ccccc1C(=O)N=Nc1c(O)[nH]c2ccc(Br)cc12`: 30.8 µg/mL (≈ 85.9 µM); `O=C(Nc1nnc(-c2ccc3c(c2)CCCC3)o1)c1c(F)cccc1F`: 4.5 µg/mL (≈ 12.7 µM). Next, `CCC(=O)Nc1nnc(-c2ccc(OC)cc2)o1`: 4.39 µg/mL (≈ 17.8 µM); `N#C/C(=C(\O)c1ccc2c(c1)OCCO2)c1nc2ccccc2s1`: 37.7 µg/mL (≈ 112 µM). Take `O=C(Nc1nnc(-c2cc(Cl)ccc2Cl)o1)c1cccs1`: the IC90 is 0.76 µg/mL (≈ 2.23 µM). Next, `COc1ccc2nc(Nc3ccc4nc(C)sc4c3)sc2c1`: 15.2 µg/mL (≈ 46.5 µM). As to `COc1ccc2nc(N(CCCn3ccnc3)C(=O)Cc3ccc(F)cc3)sc2c1`, the concentration for an effect of 90% (IC90) is 5.64 µg/mL (≈ 13.3 µM).

In the case of `CCOC(=O)c1sc(Nc2nc3ccc(OC)cc3s2)cc1C`, the IC90 was 83.8 µg/mL (≈ 240 µM). Then `CCOC(=O)N1CCc2c(sc(NC(=O)CCOc3ccccc3)c2C(N)=O)C1`, with 12.4 µg/mL (≈ 29.7 µM); and `c1ccc2c(c1)CCN(c1nc3cc4c(cc3s1)OCCO4)C2`, with 16 µg/mL (≈ 49.4 µM); and `Cc1ccc(-c2nnc(NC(=O)c3cccc(Oc4ccccc4)c3)o2)c(C)c1`, with 25.3 µg/mL (≈ 65.5 µM). As for `O=C(Nc1nnc(-c2ccc(Cl)s2)o1)c1c(F)cccc1F`, the IC90 was 3.8 µg/mL (≈ 11.1 µM).

Take `COc1ccc(C(=O)Nc2nnc(-c3cc(C)ccc3C)o2)c(OC)c1`: the 90% effect concentration (IC90) is 13.4 µg/mL (≈ 38 µM). Take `O=C(Nc1nnc(-c2cccnc2)o1)c1ccccc1Cl`: the concentration for an effect of 90% (IC90) was 53.5 µg/mL (≈ 178 µM). Next, `Cc1ccc(-c2nnc(NC(=O)c3ccc4c(c3)CCCC4)o2)c(C)c1`: 36.9 µg/mL (≈ 106 µM); `C(=N\n1cnnc1)/c1ccc(-n2nc(-c3ccccc3)cc2-c2ccccc2)cc1`: 15.1 µg/mL (≈ 38.7 µM). Next, `CCOC(=O)N1CCN(c2ncnc3c2cnn3-c2ccc(C)cc2)CC1`: 21.4 µg/mL (≈ 58.5 µM); `Cc1ccc(C)c(-c2nnc(NC(=O)c3ccc([N+](=O)[O-])cc3)o2)c1`: 78.5 µg/mL (≈ 232 µM); `CCN(CC)S(=O)(=O)c1ccc(C(=O)Nc2nnc(-c3cc(C)ccc3C)o2)cc1`: 13.1 µg/mL (≈ 30.5 µM). Next, `COc1ccc(O)c(/C=N/NC(=O)c2ccncc2)c1`: 0.82 µg/mL (≈ 3.02 µM); `CC(C)(C)C(=O)Nc1nnc(-c2cc(Cl)ccc2Cl)o1`: under 0.2 µg/mL.
